Data taken from ChEMBL document CHEMBL4346754, “Further exploration of an N-aryl phenoxyethoxy pyridinone-based series of mGlu3 NAMs: Challenging SAR, enantiospecific activity and in vivo efficacy” (Bioorg Med Chem Lett, 2019).
Active and inactive are the calls of the source. The calls are words filed in the database; no cut-off is given here.

How the values were obtained:
[1] = target: T1, Metabotropic glutamate receptor 3 (Rattus norvegicus, UniProt P31422); assay: Negative allosteric modulation of rat mGlu3R expressed in HEK cells harboring GIRK assessed as reduction in glutamate-induced thallium flux; format: cell-based
T1 sequence (P31422 whole entry): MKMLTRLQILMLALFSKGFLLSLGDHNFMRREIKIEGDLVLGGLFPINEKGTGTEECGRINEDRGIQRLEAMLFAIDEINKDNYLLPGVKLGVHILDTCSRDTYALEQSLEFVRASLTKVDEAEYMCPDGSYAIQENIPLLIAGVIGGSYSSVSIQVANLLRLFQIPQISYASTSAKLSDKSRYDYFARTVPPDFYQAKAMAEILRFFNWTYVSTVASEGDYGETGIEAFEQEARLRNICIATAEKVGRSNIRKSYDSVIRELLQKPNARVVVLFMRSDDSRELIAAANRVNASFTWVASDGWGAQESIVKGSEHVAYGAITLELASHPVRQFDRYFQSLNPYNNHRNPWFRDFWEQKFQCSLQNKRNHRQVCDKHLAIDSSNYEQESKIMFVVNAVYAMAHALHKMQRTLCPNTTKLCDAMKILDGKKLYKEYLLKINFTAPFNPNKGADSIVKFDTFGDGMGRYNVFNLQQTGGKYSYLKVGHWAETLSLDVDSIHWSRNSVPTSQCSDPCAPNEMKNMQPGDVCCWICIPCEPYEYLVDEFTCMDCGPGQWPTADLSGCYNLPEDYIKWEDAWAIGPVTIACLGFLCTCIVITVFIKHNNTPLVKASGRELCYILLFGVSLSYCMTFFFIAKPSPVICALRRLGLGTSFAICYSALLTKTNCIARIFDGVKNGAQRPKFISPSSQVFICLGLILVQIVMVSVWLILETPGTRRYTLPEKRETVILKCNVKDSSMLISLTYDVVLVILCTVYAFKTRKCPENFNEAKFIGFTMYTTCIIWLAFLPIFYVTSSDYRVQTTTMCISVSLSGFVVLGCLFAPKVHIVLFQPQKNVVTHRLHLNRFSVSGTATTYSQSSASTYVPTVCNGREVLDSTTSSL

[2] = target: Metabotropic glutamate receptor 3 (Rattus norvegicus) (UniProt P31422); assay: Negative allosteric modulation of rat mGlu3R expressed in HEK293 cells co-expressing Galpha15 assessed as decrease in glutamate-induced calcium mobilization relative to glutamate; format: functional, cell-based; design: concentration or dose not given beside the values
Chain of Metabotropic glutamate receptor 3 (Rattus norvegicus) (P31422 23-879 limits assumed): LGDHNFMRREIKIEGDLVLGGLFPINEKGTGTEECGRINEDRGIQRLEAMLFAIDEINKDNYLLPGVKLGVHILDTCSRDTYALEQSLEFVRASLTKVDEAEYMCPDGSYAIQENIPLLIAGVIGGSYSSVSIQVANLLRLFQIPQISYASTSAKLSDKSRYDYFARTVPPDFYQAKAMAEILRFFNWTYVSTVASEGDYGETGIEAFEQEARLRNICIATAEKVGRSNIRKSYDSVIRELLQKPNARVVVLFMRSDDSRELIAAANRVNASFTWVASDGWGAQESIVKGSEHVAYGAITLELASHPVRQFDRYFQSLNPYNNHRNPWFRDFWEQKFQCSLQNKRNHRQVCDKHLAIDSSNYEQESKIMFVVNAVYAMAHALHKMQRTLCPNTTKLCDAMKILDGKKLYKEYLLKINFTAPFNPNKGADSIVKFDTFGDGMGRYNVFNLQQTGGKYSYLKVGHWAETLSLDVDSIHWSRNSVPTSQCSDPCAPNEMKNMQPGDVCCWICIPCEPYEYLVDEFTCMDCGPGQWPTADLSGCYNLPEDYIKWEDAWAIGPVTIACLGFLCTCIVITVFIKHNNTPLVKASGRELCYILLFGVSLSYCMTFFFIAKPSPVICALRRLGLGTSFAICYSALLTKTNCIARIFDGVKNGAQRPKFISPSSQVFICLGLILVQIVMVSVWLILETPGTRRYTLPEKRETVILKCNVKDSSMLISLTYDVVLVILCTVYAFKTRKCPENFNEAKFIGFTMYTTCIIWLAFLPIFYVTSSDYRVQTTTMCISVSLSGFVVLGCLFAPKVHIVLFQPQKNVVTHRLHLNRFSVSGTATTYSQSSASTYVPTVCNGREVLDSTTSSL

[3] = Fraction unbound in rat plasma; format: ADME, cell-free
[4] = Fraction unbound in rat brain homogenate; format: ADME, tissue-based
[5] = Permeability coefficient, Kp in rat brain; format: ADME, tissue-based
[6] = Unbound brain to plasma concentration ratio in rat; format: ADME, cell-free; conditions: read-out: K(p,uu,brain)
Mus musculus [7] = assay: Anti-anxiety activity in C57BL/6J mouse assessed as increase in total time spent in open arms at 10 mg/kg, ip treated for 15 mins by elevated zero maze assay; format: functional, organism-based
Mus musculus [8] = assay: Anti-anxiety activity in C57BL/6J mouse assessed as increase in total number of open arm entries at 10 mg/kg, ip treated for 15 mins by elevated zero maze assay; format: functional, organism-based
Mus musculus [9] = assay: Anti-anxiety activity in C57BL/6J mouse assessed as reduction in number of marbles buried at 10 mg/kg, ip treated for 15 mins by marble burying assay; format: functional, organism-based
[10] = Half life in iv dosed rat; format: ADME, organism-based; conditions: in vivo
[11] = MRT in iv dosed rat; format: ADME, organism-based; conditions: in vivo
[12] = Volume of distribution at steady state in iv dosed rat; format: ADME, organism-based; conditions: in vivo, read-out: Vdss
Mus musculus [13] = assay: Antidepressant activity in ip dosed C57BL6/J mouse as […] in immobility time by tail suspension test; format: functional; conditions: read-out: MED
[14] = Brain to plasma permeability coefficient, Kp in mouse at 10 mg/kg, ip; format: ADME, organism-based
[15] = Drug level in mouse plasma at 10 mg/kg, ip; format: ADME, organism-based; conditions: in vivo
[16] = Drug level in mouse brain at 10 mg/kg, ip; format: ADME, organism-based; conditions: in vivo, read-out: Ct
[17] = Plasma clearance in iv dosed rat; format: ADME, organism-based
Mus musculus [18] = assay: Antidepressant activity in ip dosed C57BL6/J mouse as total time of immobile by tail suspension test relative to control; format: functional, organism-based
[19] = target: T1, Metabotropic glutamate receptor 3; assay: Negative allosteric modulation of rat mGlu3R expressed in HEK cells harboring GIRK assessed as reduction in glutamate-induced thallium flux preincubated for 5 mins followed by glutamate addition and measured after 2 mins by BTC-AM-dye based fluorescence assay; format: cell-based
Mus musculus [20] = assay: Anti-anxiety activity in C57BL/6J mouse assessed as increase in total number of open arm entries at 15 mg/kg, ip treated for 15 mins by elevated zero maze assay; format: functional, organism-based
Mus musculus [21] = assay: Anti-anxiety activity in C57BL/6J mouse assessed as increase in total time spent in open arms at 15 mg/kg, ip treated for 15 mins by elevated zero maze assay; format: functional, organism-based
Mus musculus [22] = assay: Anti-anxiety activity in C57BL/6J mouse assessed as reduction in number of marbles buried at 15 mg/kg, ip treated for 15 mins by marble burying assay; format: functional, organism-based

SMILES | IC50 [1] [µM] | Activity [2] [%] | other results
Cc1cccc(-n2ccc(OCC(C)COc3ccccc3)cc2=O)c1 (racemic) [listing 1 of 2 here] |  | 4.6 | 
O=c1cc(OCC2CCc3ccccc3O2)ccn1-c1ccc(F)cc1 (racemic) | 7.7 | -1.7 | 
C[C@H](COc1ccccc1)Oc1ccn(-c2cccc(Cl)c2)c(=O)c1 | 0.52 | -11 | fraction unbound [3]: 0.045; fraction unbound [4]: 0.014; Kp [5]: 1.42; Kp uu [6]: 0.44
Cc1cccc(-n2ccc(OCC3CCc4ccccc4O3)cc2=O)c1 (racemic) | 4.1 | -0.77 | 
Cc1cccc(-n2ccc(O[C@H](C)COc3ccccc3)cc2=O)c1 | 1.5 | -4.3 | Activity (Mus musculus [7]): Active; Activity (Mus musculus [8]): Active; Activity (Mus musculus [9]): Active; fraction unbound [3]: 0.055; fraction unbound [4]: 0.018; Kp [5]: 1.6; Kp uu [6]: 0.53; half-life [10]: 2 h; MRT [11]: 2.05 h; Vd [12]: 3.82 L/kg; minimal effective dose (Mus musculus [13]): 10 mg/kg; Kp [14]: 1.42; concentration [15]: 272 nM; concentration [16]: 386 nM; clearance [17]: 31 mL/min/kg; Activity (Mus musculus [18]): inactive
CC(COc1ccccc1)COc1ccn(-c2ccc(Cl)cc2)c(=O)c1 (single isomer, unassigned) | 0.92 | 36 | fraction unbound [3]: 0.01; fraction unbound [4]: 0.008; Kp [5]: 1.6
Cc1cccc(-n2ccc(OCC(C)COc3ccccc3)cc2=O)c1 (single isomer, unassigned; form 1) [listing 1 of 2 here] | 3.1 |  | 
Cc1cccc(-n2ccc(OCC(Oc3ccccc3)c3ccccc3)cc2=O)c1 (configuration not stated) | > 10 | 14 | 
Cc1cccc(-n2ccc(OCC(C)COc3ccccc3)cc2=O)c1 (racemic) [listing 2 of 2 here] | 3.2 |  | 
Cc1cccc(-n2ccc(OCC(C)COc3ccccc3)cc2=O)c1 (single isomer, unassigned; form 2) [listing 1 of 2 here] | 1.3 |  | 
Cc1cccc(-n2ccc(OCC(C)COc3ccccc3)cc2=O)c1 (single isomer, unassigned; form 1) [listing 2 of 2 here] |  | -6.6 | 
O=c1cc(OCC(Oc2ccccc2)c2ccccc2)ccn1-c1ccc(F)cc1 (configuration not stated) | > 10 | 4.9 | 
Cc1cccc(-n2ccc(OCC(C)COc3ccccc3)cc2=O)c1 (single isomer, unassigned; form 2) [listing 2 of 2 here] |  | -7.3 | 
CC(COc1ccccc1)COc1ccn(-c2cccc(Cl)c2)c(=O)c1 (single isomer, unassigned) | 1.4 | -4.4 | 
CN(C)CCCC1(c2ccc(F)cc2)OCc2cc(C#N)ccc21 (configuration not stated) |  |  | Activity (Mus musculus [20]): Active; Activity (Mus musculus [21]): Active; Activity (Mus musculus [22]): Active; Activity (Mus musculus [18]): inactive

More lines, main results first:

IC50 [1] [µM] | Activity [2] [%] | SMILES | other results
3 | -2.2 | C[C@H](COc1ccccc1)Oc1ccn(-c2ccc(F)cc2)c(=O)c1 | 
> 10 | 4.7 | Cc1cccc(-n2ccc(OC[C@@H](C)Oc3ccccc3)cc2=O)c1 | 
1.3 | -7.4 | Cc1cccc(-n2ccc(OC[C@H](C)Oc3ccccc3)cc2=O)c1 | 
3.2 | 6.6 | CC(COc1ccccc1)COc1ccn(-c2ccc(F)cc2)c(=O)c1 (racemic) | 
> 10 | 19 | COc1ccc(-n2ccc(O[C@H](C)COc3ccccc3)cc2=O)cc1 | 
> 10 | 32 | C[C@@H](COc1ccccc1)Oc1ccn(-c2ccc(F)cc2)c(=O)c1 | 
> 10 | 1.3 | C[C@H](COc1ccn(-c2ccc(F)cc2)c(=O)c1)Oc1ccccc1 | 
2.7 | -7.9 | C[C@H](COc1ccccc1)Oc1ccn(-c2ccc(Cl)cc2)c(=O)c1 | 
 | -5.7 | C[C@@H](COc1ccn(-c2ccc(F)cc2)c(=O)c1)Oc1ccccc1 | IC50 [19]: 1.28 to 1.3 µM; half-life [10]: 0.39 h; MRT [11]: 0.448 h; Vd [12]: 2.05 L/kg; minimal effective dose (Mus musculus [13]): 10 mg/kg; clearance [17]: 76.3 mL/min/kg
